# Values of other authors, collected in patent publication US20210361602A1, “DOSING METHODS FOR TREATING INFLAMMATORY BOWEL CONDITIONS” (priority 2020, published 2021).
# Legend:
# [1] = enema by prior methods, two patients; Campieri et al. FIG. 4
# [2] = orally administered; De Vos et al.
smiles,measurement,setting,value
"Nc1ccc(O)c(C(=O)O)c1 [5-ASA, 5-aminosalicylic acid]",systemic (plasma) levels of 5-ASA after bowel movement,[1],dramatically lower
same,levels of 5-ASA in the colon after laxative or colonic lavage,[2],decreased
